Laboratory results reported in PMC11993615, “Design, synthesis and optimization of TarO inhibitors as multifunctional antibiotics against Methicillin-resistant Staphylococcus aureus” (npj Antimicrobials and Resistance, 2025).

Tests used:
[1] = tested on: USA400 MW2; assay: MIC determination, broth microdilution; details: Staphylococcus aureus
[2] = tested on: S.aureus USA300 LAC biofilm; assay: Static biofilm inhibition assay (crystal violet); format: cell-based, Staphylococcus aureus
[3] = Preliminary liver microsomal stability testing; format: in vitro ADME, Mouse; details: for Clint In Vitro / Comments (metabolic stability): Mouse liver microsomes; for half-life at 0.1 μM: pH 7.4, Mouse liver microsomes 0.33 mg/mL, 0.1 μM compound
Method: 6. Supplementary Ta b l e 3: Preliminary liver microsomal stability testing of Ta r O
Compounds Species T1/2 Clint In Vitro MF […]
a MF: metabolic bioavailability.
Microsomes in 0.1 M TRIS buffer pH 7.4 (final concentration 0.33 mg/mL), co- factor MgCl2 (final concentration 5 mM) and tested compound (final concentration 0.1 μM, co-solvent 0.01% DMSO and 0.005% Bovin serum albumin BSA) were incubated at 37°C for 10 min. The reaction was started by the addition of NADPH (final concentration 1 mM). Aliquots were sampled at 0, 5, 15, 30 and 60 min respectively and methanol (cold in wet ice) was added to terminate the reaction.
After centrifugation (4000rpm,5 min), samples were then analyzed by LC- MS/MS.

[4] = tested on: USA300 LAC; assay: Checkerboard MIC assay with oxacillin; format: cell-based, Staphylococcus aureus; details: USA300 LAC/oxacillin; for Minimum sensitization concentration: test range 0.03–32 μg/mL
Method: (§1) In the checkerboard assay, concentrations of antibiotics, oxacillin and imipenem, and TarO inhibitors were simultaneously varied across columns and the rows, respectively. […] The range of each compound chosen for the checkerboard assay was according to their MIC value. […] For each clear well observed on the checkerboard MIC plate, the fractional inhibitory concentration index (FICI) was calculated as follows: FICI = FIC (inhibitor) + FIC (antibiotic) = MIC inhibitor in combination/ MIC inhibitor alone + MIC antibiotic in combination/MIC antibiotic alone. FIC = Fractional Inhibitory Concentration. A FICI value of < 0.5 indicates synergy, a value between 0.5 and 2 indicates additivity or indifference, and a value > 2 indicates antagonism.

[5] = tested on: USA400 MW2; assay: Checkerboard MIC assay with oxacillin; format: cell-based, Staphylococcus aureus; details: for FICI / Sensitization fold / Maximum sensitization concentration / Minimum sensitization concentration: USA400 MW2/oxacillin; for Maximum sensitization concentration / Minimum sensitization concentration: test range 0.03–32 μg/mL; for MIC of β-lactam, combined: USA400 MW2
Method: as §1

[6] = tested on: USA300 LAC; assay: MIC determination, broth microdilution; details: Staphylococcus aureus
[7] = tested on: HS663; assay: MIC determination, broth microdilution; details: Staphylococcus aureus
[8] = target: TarO (Staphylococcus aureus, UniProt Q2G060); format: cell-based; details: relative inhibition rate against the wild-type strain, OD600 at 20 h; n.a. = IC50 cannot be calculated within the test range
[9] = tested on: HS663; assay: Checkerboard MIC assay with imipenem; format: cell-based, Staphylococcus aureus; details: for FICI / Sensitization fold / Maximum sensitization concentration / Minimum sensitization concentration: HS663/imipenem; for Maximum sensitization concentration / Minimum sensitization concentration: test range 0.03–32 μg/mL; for MIC of β-lactam, combined: HS663
Method: as §1

[10] = Cytotoxicity assay (Sulforhodamine B); format: cell-based; details: human
Method: The cytotoxicity was detected by Sulforhodamine B method. The human pancreatic cancer cell line Capan-1, human colon cancer cell line HCT-116 and human lung adenocarcinoma cell line NCI-H1373 were purchased from American Type Culture Collection (ATCC; Manassas, VA) and inoculated into 96-well plates in triplicate. The cells were treated with different concentrations of compounds in humidified incubator containing 5% CO2 for 72 h when they reached 70%-80% confluence. Vincristine was added as a positive control. Then, SRB staining agent was added and microplate analyzer was used to read the absorbance at 450 nm wavelength. The cytotoxicity of each compound is expressed as the concentration of the compound that reduces cell viability to 50% (IC50). The optical density (OD) at a wavelength of 450 nm was measured using an SpectraMax 190 Microplate Reader (Molecular Devices; USA). The IC50 value was calculated by the Logit method using Graphpad Prism 9.1.

[11] = at maximum sensitization concentration
[12] = at minimum sensitization concentration
[13] = oxacillin with TarO inhibitor at maximum sensitization concentration
[14] = oxacillin with TarO inhibitor at minimum sensitization concentration
[15] = imipenem with TarO inhibitor at maximum sensitization concentration
[16] = imipenem with TarO inhibitor at minimum sensitization concentration
[17] = Capan-1 cells (human pancreatic cancer cell line), Capan-1, 72 h
[18] = HCT-116 cells (human colon cancer cell line), HCT-116, 72 h
[19] = NCI-H1373 cells (human lung adenocarcinoma cell line), NCI-H1373, 72 h

Structure (SMILES) | MIC [1] | Clint In Vitro [3] | Comments (metabolic stability) [3] | half-life at 0.1 μM [3] | FICI [4, 11] | Sensitization fold [4, 11] | FICI [4, 12] | Sensitization fold [4, 12] | Minimum sensitization concentration [4] | FICI [5, 11] | Sensitization fold [5, 11] | Sensitization fold [5, 12] | Maximum sensitization concentration [5] | Minimum sensitization concentration [5] | MIC of β-lactam, combined [5, 13] | MIC of β-lactam, combined [5, 14] | MIC [6] | MIC [7] | IC50 [8] | FICI [9, 11] | also measured
C[C@H]1[C@@H](c2cc(C(F)(F)F)cc(C(F)(F)F)c2)OC(=O)N1C(=O)CCN1CCCc2ccccc21 [Compound 10] | > 256 µg/mL | 1779 mL/min/gprot | poor | 1.18 min | <0.07 | 16 | <0.13 | 8 | 0.03 µg/mL | <0.07 | 16 | 8 | 0.12 µg/mL | 0.03 µg/mL | 1 µg/mL | 2 µg/mL | > 256 µg/mL | > 256 µg/mL | 0.14 µM | <0.02 | inhibition of biofilm formation ([2]; 0.125 μg/mL): near a half; inhibition at 0.5 µg/mL ([2]; Staphylococcus aureus, USA300, read-out: inhibition of biofilm formation): > 90%; FICI [5, 12]: <0.13; Sensitization fold [9, 11]: 64; FICI [9, 12]: <0.13; Sensitization fold [9, 12]: 8; Maximum sensitization concentration [9]: 0.25 µg/mL; Minimum sensitization concentration [9]: 0.03 µg/mL; MIC of β-lactam, combined [9, 15]: 1 µg/mL; MIC of β-lactam, combined [9, 16]: 8 µg/mL; IC50 at 72 h [10, 17]: > 20 µM; IC50 at 72 h [10, 18]: > 20 µM; IC50 at 72 h [10, 19]: > 20 µM
COc1cc(C(F)(F)F)cc([C@H]2OC(=O)N(C(=O)CCn3ccc(=O)c4cccnc43)[C@H]2C)n1 [Compound 18b] | > 256 µg/mL | 1267 mL/min/gprot | poor | 1.66 min | <0.19 | 16 | <0.26 | 4 | 0.25 µg/mL | <0.16 | 32 | 2 | 32 µg/mL | 0.06 µg/mL | 0.5 µg/mL | 8 µg/mL | > 256 µg/mL | > 256 µg/mL | 12.3 µM | <0.08 | concentration (as low as) significantly reducing biofilm formation ([2]; USA300 LAC, 24 h static culture): 8 µg/mL; Sensitization fold [9, 11]: 16; FICI [9, 12]: <0.51; Sensitization fold [9, 12]: 2; Maximum sensitization concentration [9]: 2 µg/mL; Minimum sensitization concentration [9]: 0.12 µg/mL; MIC of β-lactam, combined [9, 15]: 4 µg/mL; MIC of β-lactam, combined [9, 16]: 32 µg/mL; IC50 at 72 h [10, 17]: > 20 µM; IC50 at 72 h [10, 18]: > 20 µM; IC50 at 72 h [10, 19]: > 20 µM
